Measurements taken from patent US7084167B2, “Calcium receptor active molecules and method for preparing same” (Centre National de la Rechereche Scientifique (CNRS), priority 2000, dated 2006).

Key:
CaSR = biological target: T1, CaSR (Rattus norvegicus, UniProt P48442); assay: Accumulation of tritiated inositol phosphates in CHO(CaSR) cells; type: cell-based; conditions: for activation at 10 µM / activity at 10 µM: compound 10 μM; for activation at 10 µM: in the presence of 2 mM Ca2+; for activation at 10 µM / activation at 1 µM: CHO(CaSR) cells, read-out: Accumulation of (3H)-IP % of the 10 mM Ca2+ response ± S.E.; for activity at 10 µM: basal level at 2 mM Ca2+ = 100%, read-out: Accumulation of (1H)-IP % of basal level, CHO (CaSR); for activity greater than that of calcium (10 mM) / activation at 1 µM: compound 1 μM
T1 construct: expressed in transfected cells; host or cells: CHO (Chinese hamster ovary) cells, CHO(CaSR)
T1 sequence (P48442 20-1079): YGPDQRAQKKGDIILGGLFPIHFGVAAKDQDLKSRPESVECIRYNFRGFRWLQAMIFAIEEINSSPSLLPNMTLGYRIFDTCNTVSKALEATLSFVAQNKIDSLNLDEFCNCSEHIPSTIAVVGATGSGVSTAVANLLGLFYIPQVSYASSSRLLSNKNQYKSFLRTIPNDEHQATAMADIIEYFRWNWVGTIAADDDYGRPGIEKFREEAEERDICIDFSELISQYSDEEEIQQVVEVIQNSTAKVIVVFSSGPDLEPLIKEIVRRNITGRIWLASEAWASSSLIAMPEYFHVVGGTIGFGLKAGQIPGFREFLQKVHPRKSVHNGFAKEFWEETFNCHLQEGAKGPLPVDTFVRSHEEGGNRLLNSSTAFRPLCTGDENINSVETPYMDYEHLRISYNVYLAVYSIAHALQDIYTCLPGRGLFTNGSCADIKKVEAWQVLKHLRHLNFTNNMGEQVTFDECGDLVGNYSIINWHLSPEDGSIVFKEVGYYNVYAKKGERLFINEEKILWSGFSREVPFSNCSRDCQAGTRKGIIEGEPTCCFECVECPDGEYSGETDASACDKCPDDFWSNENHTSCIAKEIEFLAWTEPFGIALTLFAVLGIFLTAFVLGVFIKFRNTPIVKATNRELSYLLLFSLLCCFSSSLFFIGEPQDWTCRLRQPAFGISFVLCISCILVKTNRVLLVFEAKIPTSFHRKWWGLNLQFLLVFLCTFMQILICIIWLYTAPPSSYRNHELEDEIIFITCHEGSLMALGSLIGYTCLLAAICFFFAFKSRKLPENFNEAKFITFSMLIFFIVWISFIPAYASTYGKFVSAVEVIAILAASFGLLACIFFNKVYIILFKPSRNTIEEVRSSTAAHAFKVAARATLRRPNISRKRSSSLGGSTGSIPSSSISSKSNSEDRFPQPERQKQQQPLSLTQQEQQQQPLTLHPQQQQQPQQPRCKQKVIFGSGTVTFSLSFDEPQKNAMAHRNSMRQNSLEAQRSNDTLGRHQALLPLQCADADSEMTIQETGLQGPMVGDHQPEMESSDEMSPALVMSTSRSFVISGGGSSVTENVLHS
Text: The complementary DNA encoding rat CaSR has been isolated from a rat striatum cDNA library (Ruat et al, Proc. Natl. Acad. Sci., 1995). This receptor is identical, in terms of its amino acid sequence, to that expressed in the other tissues. Transfected Chinese hamster ovary (CHO) cells expressing rat CaSR (CHO(CaSR)) have been characterized and the chemical signals (second messengers) induced by activation of this receptor have been analyzed. Thus, a biochemical test for measuring the accumulation of tritiated inositol phosphates, [^3H]IPs, in response to activation of the receptor has been developed (Ruat et al, J. Biol. Chem., 1996; Ferry et al, Biochem. Biophys. Res. Common., 1997).
The calcimimetic activity of the compounds was estimated by measuring the accumulation of tritiated inositol phosphates, […] Ca^2+, in CHO(CaSR) cells (Ferry et al, Biochem Biophys Res Commun, 1997).
This activation was compared with that induced by the compound NPS-R-568, a reference calcimimetic used at a concentration of 10 μM (Table 1) (Ferry et al, Biochem Biophys Res Commun, 1997; Nemeth et al, Proc Natl Acad Sci USA, 1997).
The calcimimetic activity of the PHD/AK compounds is compared with that of a reference compound, NPS-R-568, used at the same concentration and under the same experimental conditions. This activity is expressed as a percentage of the activity of 10 mM of Ca^2+. The means±standard errors of the means of 2 to 5 independent manipulations are indicated. The experiments were carried out in the presence of 2 mM of Ca^2+.
(§1) The accumulation of tritiated inositol phosphates is expressed as a percentage of the basal level observed in the presence of 2 mM Ca^2+ (100%) in CHO (WT^+) or CHO(CaSR) cells.

CHO (WT*) cells = assay: Accumulation of tritiated inositol phosphates in control CHO(WT*) cells not expressing the CaSR; type: cell-based, Chinese hamster; conditions: Cricetulus griseus, 1 h; compound 10 μM; basal level at 2 mM Ca2+ = 100%; read-out: Accumulation of (3H)-IP % of basal level, CHO (WT*)
Procedure: as §1

[1] = biological target: T2, receptors of the parathyroid (Rattus norvegicus, UniProt P48442); conditions: rats; cited from earlier work
T2 construct: from tissue; host or cells: parathyroid gland of rats (in vivo)
T2 sequence (P48442 20-1079): T1 sequence (P48442 20-1079)

[2] = patients (men) suffering from chronic renal failure; cited from earlier work
[3] = oral, menopausal women with primary hyperparathyroidism; cited from earlier work
[4] = clinical trials phase I-II; cited from earlier work
[5] = rats; cited from earlier work

activation at 10 µM (CaSR)	activity at 10 µM (CaSR)	activity greater than that of calcium (10 mM) (CaSR)	activation at 1 µM (CaSR)	SMILES	activity at 10 µM (CHO (WT*) cells)	also measured
79 ± 13%	401 ± 16%			CC(NCc1cc2ccccc2n1C)c1cccc2ccccc12 (stereo not drawn) [AK 43]	109 ± 2%	
	588 ± 129%	50%	73 ± 10%	C[C@@H](NCc1cc2ccccc2[nH]1)c1cccc2ccccc12.Cl.Cl [PHD 337-R, (R)-N-[(indole-2-yl)methyl]-N-[1-(1-naphthyl)ethyl]amine.HCl]	130 ± 9%	melting point: 204 °C
32 ± 5%	225 ± 7%		3 ± 2%	C[C@H](NCc1cc2ccccc2[nH]1)c1cccc2ccccc12 [PHD 337-S]	132 ± 1%	
90 to 100%	444 ± 101%	50%	69 ± 9%	CC(NCc1cc2ccccc2[nH]1)c1cccc2ccccc12.Cl.Cl (stereo not drawn) [PHD 337]	147 ± 14%	
54 ± 5%	202 ± 9%			COc1ccc(S(=O)(=O)n2c(CNC(C)c3cccc4ccccc34)cc3ccccc32)cc1OC (stereo not drawn) [PHD 338]	111 ± 10%	
55 ± 5%	303 ± 42%			COc1ccc2[nH]c(CNC(C)c3cccc4ccccc34)cc2c1 (stereo not drawn) [PHD 359]	117 ± 8%	

The remaining lines, values behind:

SMILES	activation at 10 µM (CaSR)	activity at 10 µM (CaSR)	activity greater than that of calcium (10 mM) (CaSR)	activation at 1 µM (CaSR)	activity at 10 µM (CHO (WT*) cells)	also measured
COc1cccc([C@@H](C)NCCCc2ccccc2)c1 [NPS R-467]						selectivity, receptors of the parathyroid compared with those of the thyroid gland [1]: more selective
COc1cccc([C@@H](C)NCCCc2ccccc2Cl)c1.Cl [NPS R-568]	106 ± 15%	454 ± 33%			110 ± 9%	PTH concentrations [2]: reduces PTH concentrations; concentrations of PTH [3]: lower; concentrations of free serum Ca2+ ions [3]: lower; bioavailability [4]: low; osteitis fibrosa [5]: reduces or eliminates osteitis fibrosa
COc1cccc([C@@H](C)NCc2cc3ccccc3[nH]2)c1 [PHD 356]	90 to 100%	482 ± 58%	50%	76 ± 1%	151 ± 7%	
CC(NCc1cc2cc(F)ccc2[nH]1)c1cccc2ccccc12 (stereo not drawn) [PHD 361]	87 ± 7%	420 ± 70%			133 ± 3%	
CC(NCc1cc2cc(Cl)ccc2[nH]1)c1cccc2ccccc12.Cl.Cl (stereo not drawn) [PHD 363]	60 ± 1%	325 ± 67%	less active	6 ± 3%	125 ± 12%	
CC(NCC1Cc2ccccc2N1)c1cccc2ccccc12 (stereo not drawn) [PHD 368]	77 ± 1%	388 ± 85%			126 ± 6%	
